Target: T1, protein tyrosine phosphatase (PTP) 1B (Homo sapiens, UniProt P18031)
T1 sequence (P18031 1-435): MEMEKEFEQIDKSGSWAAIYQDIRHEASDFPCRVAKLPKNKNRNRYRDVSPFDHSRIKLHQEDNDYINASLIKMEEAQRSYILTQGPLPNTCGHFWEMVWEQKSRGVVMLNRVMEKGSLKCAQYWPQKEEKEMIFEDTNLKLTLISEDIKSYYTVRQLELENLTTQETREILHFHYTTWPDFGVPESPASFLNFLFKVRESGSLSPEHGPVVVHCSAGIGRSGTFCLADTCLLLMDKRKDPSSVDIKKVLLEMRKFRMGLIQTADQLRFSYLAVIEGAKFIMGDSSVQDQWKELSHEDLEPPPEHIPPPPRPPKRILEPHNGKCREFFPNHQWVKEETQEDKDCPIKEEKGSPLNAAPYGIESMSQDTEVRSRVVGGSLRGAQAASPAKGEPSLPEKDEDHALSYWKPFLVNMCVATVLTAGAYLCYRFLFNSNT
Assay: in vitro PTP1B inhibitor screening assay
Format: biochemical

C[C@H]1Oc2cc3c(-c4c(O)cc(O)c5c(O)c6c(cc45)O[C@H](C)[C@@H](C)C6=O)c(O)cc(O)c3c(O)c2C(=O)[C@@H]1C [4548-G05, [9,9′-Bi-4H-naphtho[2,3-b]pyran]-4,4′-dione,2,2′,3,3′-tetrahydro-5,5′,6,6′,8,8′-hexahydroxy-2,2′,3,3′-tetramethyl]
IC50: 75.3 ± 2.52 µM

Source: paper PMC3964510 (Diabetes, 2014)
